The target in assay [1] is Serine/threonine-protein kinase pim-2 (Homo sapiens, UniProt Q9P1W9). The assay is described as follows: (§1) A fluorescent-labeled Pim-specific peptide substrate, was custom synthesized by American Peptide Company (Sunnyvale, Calif.). Reaction Buffer contained 10 mM HEPES, pH 7.2, 10 mM MgCl2, 0.01% Tween 20, 2 mM DTT. Termination Buffer contained 190 mM HEPES, pH 7.2, 0.015% Brij-35, 0.2% Coating Reagent 3 (Caliper Life Sciences, Hopkinton, Mass.), 20 mM EDTA. Separation Buffer contained 100 mM HEPES, pH 7.2, 0.015% Brij-35, 0.1% Coating Reagent 3, 1:200 Coating Reagent 8 (Caliper Life Sciences, Hopkinton, Mass.), 10 mM EDTA and 5% DMSO.

Assay [2] deals with Serine/threonine-protein kinase pim-3 (Homo sapiens, UniProt Q86V86). The description is as §1, with “Binding Assay: PIM-1, -2, and -3 enzymes were generated as fusion proteins expressed in bacteria and purified by IMAC column chromatography (Sun, X., Chiu, J. F., and He, Q. Y. (2005) Expert Rev. Proteomics, 2:649-657). A fluorescent-labeled” for “A fluorescent-labeled”.

From ChEMBL document CHEMBL3638875, “Pyrazol-4-yl-heterocyclyl-carboxamide compounds and methods of use” (2014) come the findings set out here.

pKi: −log10 of the molar value.

What is called pKi is the Ki on a negative log10 scale, so that one unit is a factor of ten. High values mean a low Ki, low ones a high Ki.

Serine/threonine-protein kinase pim-2, sequence (Q9P1W9 whole entry): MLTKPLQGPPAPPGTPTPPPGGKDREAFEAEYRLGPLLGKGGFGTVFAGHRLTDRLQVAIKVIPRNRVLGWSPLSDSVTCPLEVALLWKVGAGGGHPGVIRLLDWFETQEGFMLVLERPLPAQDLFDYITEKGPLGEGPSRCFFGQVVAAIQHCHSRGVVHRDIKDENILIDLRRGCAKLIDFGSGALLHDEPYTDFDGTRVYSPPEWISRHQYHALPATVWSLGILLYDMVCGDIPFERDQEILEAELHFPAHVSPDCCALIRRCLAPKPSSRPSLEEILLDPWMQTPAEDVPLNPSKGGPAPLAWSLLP

In the case of `Cn1ncc(NC(=O)c2nc(Br)cnc2N)c1N1CCC[C@H](N)C1`, the pKi in assay [1] was 6.81; in assay [2], 7.17.
